| Compound | melting point [°C] |
| --- | --- |
| COc1cc2c(Nc3ccc(Sc4ccccn4)cc3)c(C#N)cnc2cc1F | 231 to 233 |
| O=C(NCC#Cc1ccc(C#CCNC(=O)OCc2ccccc2)nc1)OCc1ccccc1 | 156 to 158 |
| C1=C(CCc2ccco2)CCN(Cc2n[nH]c3c2CCc2ccccc2-3)C1 | 205 to 208 |
| COc1cccc([C@H]2O[C@H](CC(=O)NCc3ccc(C(=O)O)o3)C(=O)N(CC(C)(C)CO)c3ccc(Cl)cc32)c1OC | 128 to 131 |
| NC(=S)C=C(N)CCOCc1ccccc1 | 93 to 94 |
| CCc1c(-c2ccccc2)c2c(COCCN3CCCCC3)cc3c(O)ccc1n32 | 196 to 198 |
| O=C(NCCCCN1CCC(c2c[nH]c3ccccc23)CC1)c1sc(-c2ccc(C(F)(F)F)cc2)nc1CO | 235 |
| CCC1Cc2cc(OCC(=O)O)c(Cl)c(Cl)c2C1O (stereo not given) | 121 to 122 |
| COc1ccc(NCCCOc2ccc3ccc(OCCCNc4ccc(OC)cc4)cc3c2)cc1 | 127 |
| O=C(Nc1ccc(-c2ncc(-c3cccc(NC(=O)c4ccccn4)c3)[nH]2)cc1)c1ccccn1 | 255 to 257 |
| CC(=O)N1CC=C(c2cc3c(cc2F)c(=O)c2c(=O)[nH]sc2n3C2CC2)CC1 | 243 to 244 |
| Cc1cc(NC(=O)Nc2ccc(N(CCCl)CCCl)cc2)c2ccccc2n1 | 128 to 129 |
| N#CNC(=N)CCN1CCOC1=O | 137 to 139 |
| O=C1Nc2ccncc2Oc2ccccc21 | 253 to 254 |
| NC(=O)N(Cc1ccc(C(F)(F)F)c(N2CCCCC2)c1)c1cccc2c1CC(O)CC2 (stereo not given) | 163 |
| O=C(O)C1(CCCCCC(O)CCCCCC2(C(=O)O)CC2)CC1 | 87 to 91 |
| CC(=NC(C#N)=C(N)C#N)c1cccs1 | 177 to 179 |
| O=C(O)c1ccccc1C(=O)Nc1cccc(-c2ccnc3c(C(=O)c4cccs4)cnn23)c1 | 215 to 216 |
| Cc1ccc(N2CCN(c3c(C)c(C)c4c(c3C)CC(C)(CO)O4)CC2)cc1 (stereo not given) | 152 to 155 |
| C[C@H]1N(C(=O)c2ccc(C(F)(F)F)cc2F)CC(=O)O[C@@]1(Cn1cncn1)c1ccc(F)cc1F (relative stereo) | 191 to 192 |
| CCOC(=O)c1ccc(COCc2csc3nc(C(=O)NCc4cccc(N(C)C(=O)C(F)(F)F)c4)[nH]c(=O)c23)cc1 | 208 to 209 |
| CCCCOC(=O)[C@H]1CN(c2cc(F)c(C3CCSCC3)c(F)c2)C(=O)O1 | 86 to 89 |
| O=C1c2ccccc2S(=O)(=O)N1CCCCOc1ccccc1 | 92 to 94 |

| Compound | melting point [°C] |
| --- | --- |
| CC(C)(C)OC(=O)N[C@@H](C(=O)N1CCC[C@H]1C(=O)NCC1CCc2nc(N)ncc2C1)C(c1ccccc1)c1ccccc1 (stereo not given in full) | 127 to 130 |
| COC1OCC[C@@H]1NC(=O)[C@H](CC(C)C)NC(=O)[C@H](CC(C)C)NC(=O)OCc1ccccc1 (stereo not given in full) | 76 to 77 |
| N#Cc1ccnc(N2CCOCC2)c1 | 135 to 136 |
| Fc1cccc2oc(CCC#Cc3ccccn3)nc12 | 89 to 89.5 |
| Clc1ccc(-c2ccc(C3=NC[C@H](c4ccccc4)O3)cc2)cc1 | 122 |
| O=C(SC[C@@H](SC(=O)c1ccccc1)C(=O)N1CCC[C@H]1C(=O)O)c1ccccc1 | 195 to 196 |
| CCCc1nn(C)c2c(-c3ccc(SC)cc3)nc(-c3ccc(F)cc3)nc12 | 114 to 116 |
| Fc1ccc(-c2[nH]nc(-c3ccccc3)c2-c2ccncc2)cc1 | 265 to 267 |
| Nc1ccc(CCN2CCN(c3nsc4ccccc34)CC2)cc1 | 154 |
| OC1CCCc2nc3cc(Cl)ccc3c(NCc3ccc(F)cc3)c21 (stereo not given) | 187 to 188 |
| O=C(NCCN1CCC2(CC1)C(=O)NCN2c1ccccc1)c1ccco1 | 196 |
| CCOCc1cc2c(cc1C#Cc1ccccc1)NC(=O)CC(c1cccc(C#N)c1)=N2 | 229 |
| CCOC(=O)c1sc(SC)c(C(=O)CC(C)=O)c1C | 51 to 52 |
| Cc1[nH]c(Br)c(C)c1-c1ccnc(Nc2ccc(F)cc2)n1 | 181 to 183 |
| Nc1c(-c2ccc(-c3ccccc3)cc2)nc2ccc(Cl)cc2c1C(=O)O | 244 to 245 |
| COC(=O)CCC1(CCC(=O)OC)c2cc(N(c3ccccc3)c3cccc(C)c3)ccc2-c2ccc(N(c3ccccc3)c3cccc(C)c3)cc21 | 159 to 160 |
| CC(=O)OCC12CCC(OC(C)=O)CC1CC=C1C2CCC2(C)C(OC(=O)C(C)(C)C)CCC12O (stereo not given) | 141 to 142 |
| CC(=O)OC1CSC(Oc2ccc3ncsc3c2)C(OC(C)=O)C1OC(C)=O (stereo not given) | 166 |
| O=C(O)C1C(c2ccc3c(c2)OCO3)c2ccccc2C1c1ccc2c(c1)OCO2 (racemic) | 182 to 185 |
| Cc1cccc(-c2[nH]c(C(C)C)nc2-c2ccc(F)c(-c3cc[nH]c3)c2)n1 | 106 to 110 |
| O=C(c1cccs1)c1cnn2c(-c3cccc(-c4nnn(Cc5ccccn5)n4)c3)ccnc12 | 184 |
| O=C(CCCCCCCCC(=O)OCCO)OCCO | 47 |
| CCCCNC(=O)[C@@H](C[C@H](O)[C@H](CC1CCCCC1)NC(=O)[C@H](Cc1cscn1)NC(=O)[C@@H](CC(=O)N1CCOCC1)Cc1ccccc1)C(C)(C)O | 92 to 95 |

More lines, now with the values ahead:

| melting point [°C] | Compound |
| --- | --- |
| 128 to 130 | O=C(CC(=O)N1CCOCC1)c1ccc2ccccc2c1O |
| 71 to 75 | COC(=O)C(Sc1ccc(Cl)cc1)c1ccc(Oc2ccc(Cl)cc2)cc1 (stereo not given) |
| 112 to 113 | O=Cc1ccccc1C(=O)c1ccc(Cl)cc1 |
| 74 to 76 | COC(=O)C#CC(=O)c1ccc(SC)cc1 |
| 77 to 79 | CCOC(=O)c1c(Cl)c(-c2ncc(Cl)cc2F)nn1C |
| 142 to 143 | COC[C@@H]1CN(c2nsc3cc(O)ccc23)C(=O)O1 |
| 72 to 73 | CCCC(C)c1nn(-c2ccc(C(F)(F)F)cn2)cc1CCCO (stereo not given) |
| 70 to 71 | Cc1cc([N+](=O)[O-])c(O)cc1Cl |
| 92 | Cc1cc(S(=O)(=O)N2c3ccccc3CC2C(=O)NCCOc2ccc(CC(=O)O)cc2)ccc1-c1cccc(C(F)(F)F)c1 (stereo not given) |
| 96 to 99 | Cc1cn(C(C)(C(=O)N(C)C)c2ccccc2)nc1-c1ccccc1Cl (stereo not given) |
| 206 | O=C(NC1CC1)c1cc([N+](=O)[O-])[nH]n1 |
| 173 to 174 | CC(=O)Nc1ccc(-c2cc(C(C)(C)C)c(O)c(C(C)(C)C)c2)cc1 |
| 134 | CCOC(=O)c1occ(-c2ccccc2)c(=O)c1Br |
| 108 to 112 | CCOC(=O)c1cc(-n2c(=O)c3c(n(C)c2=O)CCCC3)ccc1Cl |
| 141 to 143 | CCc1c(-c2ccc(O)cc2)c2cc(COCCN(C)C)c3cccc1n32 |
| 119 to 124 | CC1Cc2ccc([Si](C)(C)C)c(S(=O)(=O)NC(C)(C)C)c2S1 (stereo not given) |
| 255 to 256 | CCn1nc2c(N)nc3ccccc3c2c1CO |
| 88 | COCCN(C)C1CCN(c2ccc(N)cc2C#N)CC1 |
| 161 to 162 | C[C@H]1CCCN(C(=O)Cc2ccc(Cl)c(Cl)c2)[C@H]1CO (relative stereo) |
| 217 to 218 | NC(=O)c1nccc(Oc2ccc(N)cc2F)c1Cl |
| 188 to 192 | CCOC(=O)c1cn(-c2csnn2)c2nc(Cl)c(F)cc2c1=O |
| 128 to 130 | CCC1NC(=O)N(c2ccccc2)C(=O)N1OC(C)=O (stereo not given) |
| 195 to 197 | CCc1nc2c3c(c(C(=O)N(C)C)c(-c4ccccc4)c2n1C)CCCO3 |
| 176 to 178 | N#Cc1ccc(Oc2ccccc2NC(=O)c2cccc([N+](=O)[O-])c2)cc1C#N |
| 111 to 112 | COc1ccc(O)c(CSc2nc(C)cn2C)c1 |
| 101 to 103 | COC(=O)c1cc(I)c(C(F)(F)F)cc1N |
| 156 to 158 | CNC(=O)c1cnc(N2CCOCC2)cc1-c1ccccc1C |

| melting point [°C] | Compound |
| --- | --- |
| 137 to 139 | Cc1nc2c(C=O)cccn2c1Br |
| 263 to 265 | NC(=O)c1cc(=O)c2c(o1)c1ccccc1n2-c1ccccc1 |
| 160 to 163 | CCOC(=O)Cc1ccc(NC(=O)Nc2ccccc2Br)c(OC)n1 |
| 111 to 113 | BrCc1noc2cc3ccccc3cc12 |
| 54 to 55 | O=S(=O)(Oc1ccc2ccccc2c1-c1nnc(Cl)c2ccccc12)C(F)(F)F |
| 126 | Cc1ccc(S(N)(=O)=O)cc1C(O)CCl (stereo not given) |
| 164 | CCOc1cc2c(Cl)ccnc2nc1C |
| 92 to 93 | COC(=O)C(CNC(=O)Cc1ccc(OC)c(OC)c1)c1ccc(OC)c(OC)c1 (stereo not given) |
| 302 | NS(=O)(=O)c1cccc(NC(=O)c2cnn3c(C(F)(F)F)cc(-c4ccc(Cl)c(Cl)c4)nc23)c1 |
| 169 | CNC(=O)C1CN(CC(=O)Nc2c(Cl)cc(Cl)cc2Cl)CCN1 (stereo not given) |
| 295 to 296 | Cc1nc(-c2cccc(C(=O)O)c2)sc1C(=O)O |
| 149 | Cc1csc2c1c(C(=O)c1ccc(Cl)cc1)cn2C(C)C(=O)O (stereo not given) |
| 81 to 83 | COc1cc(Sc2ccncc2)cc2ccoc12 |
| 195 to 198 | O=C1NCCc2c(O)cccc21 |
| 128 to 129 | COCC1CN(c2ccc3cc(OCCS(C)(=O)=O)ccc3c2)C(=O)O1 (stereo not given) |
| 87 | CCOC(O)(OCC)C(Cc1ccc2ccccc2c1)NC(=O)OC(C)(C)C (stereo not given) |
| 53 to 56 | COC(=O)C(=O)C1=C(O)c2ccsc2SC1 |
| 148 to 149 | COc1cccc(Oc2c(NCCOc3ncccn3)ncnc2NS(=O)(=O)c2ccc(C(C)(C)C)cc2)c1 |
| 67 to 69 | Cc1cc(CCCCCOc2c(Cl)cc(C(=O)O)cc2Cl)on1 |
| 87 to 88 | COc1cc(OC)c2ccccc2c1O |
| 94 to 95 | COC(=O)CCC(=O)c1ccc2c(c1)CC(CCCCNC(C)=O)C2 (stereo not given) |
| 119 to 120 | COc1cc(C)c(C(=O)c2c(O)ccc(Br)c2C)c(OC)c1OC |
| 144 | CCOC(=O)CCC(=O)CSc1nc2cc(Cl)c(F)cc2c(O)c1C(=O)OCC |
| 180 to 182 | CCOC=Nc1ccc2nnc(-c3ccc([N+](=O)[O-])s3)n2n1 |
| 69 to 71 | CS(=O)(=O)SCCCCC(=O)O |
| 151 | Cn1cc(O)c(=O)c2ccc(OCC(F)(F)F)cc21 |
| 166 to 168 | CN1CC(CCCl)Oc2cc3ccccc3cc2C1=S (stereo not given) |
